Measured values from patent publication US9205089B2, “Layer processing for pharmaceuticals” (Massachusetts Institute of Technology, priority 2011, dated 2015).

Key:
Type in all cases: physicochemical
[1] = Solvent inspection of dried layers after storage in desiccator overnight
Description: (§1) Water content was measured using a […] volumetric KF titration from Mettler Toledo. […] […] drug purity was verified by Agilent […] series high performance liquid chromatography (HPLC). All analyses were carried out in triplicate. […] In order to confirm the chemical stability of the drug, HPLC was used. Different experiments were carried out to examine the level of degradation of aliskiren as the drying temperature and time increased. […] The highest allowable drying temperature was set to be 70° C. At 70° C., 60 min was the minimum drying time required to have layers that peel easily and that contain solvent content under regulatory requirements (ethanol<0.5% and water %<0.5%). The layers were stored in a vacuum desiccator overnight to remove excess solvent, and then sealed under vacuum for storage and further characterization.

[2] = Stability test of […]/HPMC thin layer tablets stored at 40° C., 75% R.H. (HPLC); details: Pure ALISKIREN (starting drug substance)
Description: Tablet forming was done by Instron and a force of up to 25 kN (9 mm diameter die) was recorded. The as-made thin layer tablets are then coated by Opadry AMB for 60 min, with the final coating taking up 10% of the tablet weight. Every 30 tablets were stored in a plastic vial of about 40 ml in volume together with a small standard drying bag. Vials were sealed using aluminum foil and placed at 40° C. for 75% R.H. for 1 month or 3 months. Samples of Aliskiren/HPMC thin layer tablets were tested by HPLC after peeling off the blue coating materials to avoid cross contamination. […] Water content was measured using a […] volumetric KF titration from Mettler Toledo. […] drug purity was verified by Agilent […] series high performance liquid chromatography (HPLC). All analyses were carried out in triplicate. […] The as-obtained tablets were then coated by Opadry AMB and placed at 40° C. for 75% R.H. for 1-month or 3-months stability tests.

[3] = HPLC purity of aliskiren in Aliskiren/HPMC layers under different drying conditions
Description: as §1

[4] = Crystallization time of ACM in layers with different excipients; details: 50% ACM layers
[5] = DSC glass transition of rapid quench 50% ACM layers; details: 50% ACM loading, DSC 10° C./min
Description: All analyses were carried out in triplicate.
Most thin layer drug products are initially amorphous, but tend to crystallize slowly over time. Time and material consuming storage experiments are usually required to study the stability of amorphous drug candidate. It is necessary to predict the amorphous stability of drug candidates early in the formulation process. However, the glass transition temperature of the polymer is masked by the melting peak of the drug and little extra information can be extracted. The DSC heating curve for a sample quench cooled after being melted gave information on the glass transition temperature, the crystallisation exotherm, and the melting endotherm (FIG. 21). Samples were prepared by melting in closed DSC pans from R.T. to 200° C. at a rate of 10° C./min and subsequently cooled to −10° C. at a cooling rate of 10° C./min. The pure ACM phases were well studied by DSC; the amorphous form a glass transition peak at 24.8° C., a crystallization peak between 65° C. to 100° C., a solid state transition at about 130° C. from Form III to Form II, and a melting peak for Form II at about 158° C.

COCCCOc1cc(C[C@@H](C[C@H](N)[C@@H](O)C[C@H](C(=O)NCC(C)(C)C(N)=O)C(C)C)C(C)C)ccc1OC [Aliskiren]
Solvent inspection (<0.5%) after stored in dessicator overnight ([1]; drying 30° C., 180 min): Yes
Solvent inspection (<0.5%) after stored in dessicator overnight ([1]; drying 50° C., 90 min): Yes
Solvent inspection (<0.5%) after stored in dessicator overnight ([1]; drying 50° C., 180 min): Yes
Solvent inspection (<0.5%) after stored in dessicator overnight ([1]; drying 70° C., 60 min): Yes
Solvent inspection (<0.5%) after stored in dessicator overnight ([1]; drying 70° C., 90 min): Yes
Purity of ALISKIREN [2]: 99.6%
ALISKIREN purity % ([3]; drying 30° C., 180 min): 99.6%
One single impurity >0.2% ([3]; drying 30° C., 180 min): No
ALISKIREN purity % ([3]; drying 50° C., 90 min): 99.5%
One single impurity >0.2% ([3]; drying 50° C., 90 min): No
ALISKIREN purity % ([3]; drying 50° C., 180 min): 99.5%
One single impurity >0.2% ([3]; drying 50° C., 180 min): No
ALISKIREN purity % ([3]; drying 70° C., 30 min): 99.5%
One single impurity >0.2% ([3]; drying 70° C., 30 min): No
ALISKIREN purity % ([3]; drying 70° C., 60 min): 99.3%
One single impurity >0.2% ([3]; drying 70° C., 60 min): No
ALISKIREN purity % ([3]; drying 70° C., 90 min): 99.2%
One single impurity >0.2% ([3]; drying 70° C., 90 min): No
ALISKIREN purity % ([3]; drying 90° C., 30 min): 98.8%
One single impurity >0.2% ([3]; drying 90° C., 30 min): Yes

CC(=O)Nc1ccc(O)cc1 [ACM only, Acetaminophen]
Crystallization time [4]: <6 h
Tg [5]: 24.8 °C
